From patent publication US20110136666A1, “CHEMICAL COMPOUNDS” (SYNGENTA CROP PROTECTION, INC., priority 2008, published 2011)

Columns and labels:
Type in all cases: in vivo
[1] = tested on: Ipomea hederaceae (IPOHE); test: Pre-emergence biological efficacy, glasshouse pot test; conditions: Ipomoea hederacea, 312 h, after 13 days, 100=total damage, 0=no damage, read-out: Percentage damage caused to weed species IPOHE
Procedure: (§1) Seeds of Alopecurus myosuroides (ALOMY), Setaria faberi (SETFA), Echinochloa crus-galli (ECHCG), Solanum nigrum (SOLNI), Amaranthus retroflexus (AMARE) and Ipomea hederaceae (IPOHE) were sown in standard soil in pots. After cultivation for one day under controlled conditions in a glasshouse (at 24/16° C., day/night; 14 hours light; 65% humidity), the plants were sprayed with an aqueous spray solution derived from the formulation of the technical active ingredient in acetone/water (50:50) solution containing 0.5% Tween 20 (polyoxyethylene sorbitan monolaurate, CAS RN 9005-64-5) to give a final dose of 250 or 1000 g/ha of test compound.
(§2) The test plants were then grown under controlled conditions in the glasshouse (at 24/16° C., day/night; 14 hours light; 65% humidity) and watered twice daily. After 13 days the test was evaluated (100=total damage to plant; 0=no damage to plant).

Setaria faberi (SETFA) [2] = test: as above; conditions: 312 h, after 13 days, 100=total damage, 0=no damage, read-out: Percentage damage caused to weed species SETFA
Procedure: as §1, §2

Solanum nigrum (SOLNI) [3] = test: as above; conditions: 312 h, after 13 days, 100=total damage, 0=no damage, read-out: Percentage damage caused to weed species SOLNI
Procedure: as §1, §2

[4] = tested on: Amaranthus retroflexus (AMARE); test: as above; conditions: 312 h, after 13 days, 100=total damage, 0=no damage, read-out: Percentage damage caused to weed species AMARE
Procedure: as §1, §2

[5] = tested on: Alopecurus myosuroides (ALOMY); test: as above; conditions: 312 h, after 13 days, 100=total damage, 0=no damage, read-out: Percentage damage caused to weed species ALOMY
Procedure: as §1, §2

[6] = tested on: Echinochloa crus-galli (ECHCG); test: as above; conditions: 312 h, after 13 days, 100=total damage, 0=no damage, read-out: Percentage damage caused to weed species ECHCG
Procedure: as §1, §2

[7] = tested on: Ipomea hederaceae (IPOHE); test: Post-emergence biological efficacy, glasshouse pot test; conditions: Ipomoea hederacea, 312 h, after 13 days, 100=total damage, 0=no damage, read-out: Percentage damage caused to weed species IPONE
Procedure: as §1, with “8 days” for “one day”
(§3) The test plants were then grown on under controlled conditions in a glasshouse (at 24/16° C., day/night; 14 hours light; 65% humidity) and watered twice daily. After 13 days the test was evaluated (100=total damage to plant; 0=no damage to plant).

Setaria faberi (SETFA) [8] = test: as above; conditions: 312 h, after 13 days, 100=total damage, 0=no damage, read-out: Percentage damage caused to weed species SETFA
Procedure: as §1, with “8 days” for “one day”
as §3

Solanum nigrum (SOLNI) [9] = test: as above; conditions: 312 h, after 13 days, 100=total damage, 0=no damage, read-out: Percentage damage caused to weed species SOLNI
Procedure: as §1, with “8 days” for “one day”
as §3

[10] = tested on: Amaranthus retroflexus (AMARE); test: as above; conditions: 312 h, after 13 days, 100=total damage, 0=no damage, read-out: Percentage damage caused to weed species AMARE
Procedure: as §1, with “8 days” for “one day”
as §3

[11] = tested on: Alopecurus myosuroides (ALOMY); test: as above; conditions: 312 h, after 13 days, 100=total damage, 0=no damage, read-out: Percentage damage caused to weed species ALOMY
Procedure: as §1, with “8 days” for “one day”
as §3

[12] = tested on: Echinochloa crus-galli (ECHCG); test: as above; conditions: 312 h, after 13 days, 100=total damage, 0=no damage, read-out: Percentage damage caused to weed species ECHCG
Procedure: as §1, with “8 days” for “one day”
as §3

Row | SMILES | pest or weed control at 1000 g/ha [1] | pest or weed control at 1000 g/ha (Setaria faberi (SETFA) [2]) | pest or weed control at 1000 g/ha (Solanum nigrum (SOLNI) [3]) | pest or weed control at 1000 g/ha [4] | pest or weed control at 1000 g/ha [5] | pest or weed control at 1000 g/ha [6] | pest or weed control at 1000 g/ha [7] | pest or weed control at 1000 g/ha (Setaria faberi (SETFA) [8]) | pest or weed control at 1000 g/ha (Solanum nigrum (SOLNI) [9]) | pest or weed control at 1000 g/ha [10] | pest or weed control at 1000 g/ha [11] | pest or weed control at 1000 g/ha [12] | other results
1 | COC(=O)c1nc(-c2ccc(OC)nc2)nc(N)c1Cl [Compound 2-155, 4-Amino-5-chloro-6-methoxycarbonyl-2-(2-methoxypyridin-5-yl)-pyrimidine] | 0% | 0% | 20% | 20% | 0% | 0% | 70% | 80% | 70% | 100% | 0% | 80% | 
2 | COC(=O)c1nc(-c2ccc(C(C)=O)s2)nc(N)c1Cl [Compound 2-9, 4-Amino-5-chloro-6-methoxycarbonyl-2-(5-methylcarbonyl-thiophen-2-yl)-pyrimidine] |  |  |  |  |  |  |  |  |  |  |  |  | pest or weed control at 250 g/ha [1]: 0%; pest or weed control at 250 g/ha (Setaria faberi (SETFA) [2]): 0%; pest or weed control at 250 g/ha (Solanum nigrum (SOLNI) [3]): 0%; pest or weed control at 250 g/ha [4]: 0%; pest or weed control at 250 g/ha [5]: 0%; pest or weed control at 250 g/ha [6]: 0%; pest or weed control at 250 g/ha [7]: 0%; pest or weed control at 250 g/ha (Setaria faberi (SETFA) [8]): 0%; pest or weed control at 250 g/ha (Solanum nigrum (SOLNI) [9]): 0%; pest or weed control at 250 g/ha [10]: 0%; pest or weed control at 250 g/ha [11]: 0%; pest or weed control at 250 g/ha [12]: 0%
3 | O=C(O)c1nc(-c2ccccn2)nc(Cl)c1Cl [Compound 61-149, 4,5-dichloro-2-pyridin-2-ylpyrimidine-6-carboxylic acid] | 0% | 0% | 0% | 0% | 0% | 0% | 0% | 0% | 40% | 0% | 0% | 0% | 
4 | COC(=O)c1nc(-c2ccoc2)nc(N)c1Cl [Compound 2-34, 4-Amino-5-chloro-2-(furan-3-yl)-6-methoxycarbonyl pyrimidine] | 0% | 0% | 0% | 0% | 0% | 0% | 50% | 0% | 10% | 30% | 10% | 0% | 
5 | CCOC(=O)c1nc(-c2ccc(Cl)s2)nc(N)c1Cl [Compound 3-2, 4-amino-5-chloro-2-(5-chlorothiophen-2-yl)-6-ethoxycarbonyl-pyrimidine] | 0% | 0% | 0% | 30% | 0% | 0% | 50% | 0% | 70% | 80% | 0% | 0% | 
6 | COC(=O)c1nc(-c2cncc3ccccc23)nc(N)c1Cl [Compound 2-196, 4-Amino-5-chloro-2-isoquinolin-4-yl-6-methoxycarbonyl pyrimidine] | 0% | 0% | 0% | 0% | 0% | 0% | 0% | 0% | 0% | 0% | 0% | 0% | 
7 | COC(=O)c1nc(-c2cc3ccccc3s2)nc(N)c1Cl [Compound 2-54, 4-Amino-2-(benzothiophen-2-yl)-5-chloro-6-methoxycarbonyl pyrimidine] | 0% | 20% | 20% | 70% | 20% | 70% | 80% | 50% | 40% | 70% | 0% | 70% | 
8 | COC(=O)c1nc(-c2cccnc2OC)nc(N)c1Cl [Compound 2-154, 4-Amino-5-chloro-6-methoxycarbonyl-2-(2-methoxypyridin-3-yl)-pyrimidine] | 0% | 0% | 20% | 0% | 0% | 0% | 20% | 0% | 30% | 70% | 0% | 0% | 
9 | COC(=O)c1nc(-c2cc(Cl)sc2Cl)nc(N)c1Cl [Compound 2-19, 4-Amino-5-chloro-2-(2,5-dichlorothiophen-3-yl)-6-methoxycarbonyl pyrimidine] | 30% | 0% | 20% | 20% | 0% | 0% | 70% | 30% | 70% | 100% | 0% | 10% | 
10 | COC(=O)c1nc(-c2ccc(OC)s2)nc(N)c1Cl [Compound 2-7, 4-Amino-5-chloro-6-methoxycarbonyl-2-(5-methoxythiophen-2-yl)-pyrimidine] | 20% | 20% | 0% | 90% | 0% | 60% | 80% | 70% | 80% | 100% | 0% | 80% | 
11 | COC(=O)c1nc(-c2cccnc2F)nc(N)c1Cl [Compound 2-172, 4-Amino-5-chloro-2-(2-fluoropyridin-3-yl)-6-methoxycarbonyl pyrimidine] |  |  |  |  |  |  |  |  |  |  |  |  | pest or weed control at 250 g/ha [1]: 0%; pest or weed control at 250 g/ha (Setaria faberi (SETFA) [2]): 0%; pest or weed control at 250 g/ha (Solanum nigrum (SOLNI) [3]): 0%; pest or weed control at 250 g/ha [4]: 0%; pest or weed control at 250 g/ha [5]: 0%; pest or weed control at 250 g/ha [6]: 0%; pest or weed control at 250 g/ha [7]: 10%; pest or weed control at 250 g/ha (Setaria faberi (SETFA) [8]): 10%; pest or weed control at 250 g/ha (Solanum nigrum (SOLNI) [9]): 60%; pest or weed control at 250 g/ha [10]: 0%; pest or weed control at 250 g/ha [11]: 10%; pest or weed control at 250 g/ha [12]: 0%
